According to US9446146B2, “Methods and agents for improving targeting of CD138 expressing tumor cells” (BIOTEST AG, priority 2007, dated 2016):

B1: huC242-DM4 (conjugate, chains of the INN, looked up)
VH: QVQLVQSGAEVKKPGETVKISCKASDYTFTYYGMNWVKQAPGQGLKWMGWIDTTTGEPTYAQKFQGRIAFSLETSASTAYLQIKSLKSEDTATYFCARRGPYNWYFDVWGQGTTVTVSS
VL: DIVMTQSPLSVPVTPGEPVSISCRSSKSLLHSNGNTYLYWFLQRPGQSPQLLIYRMSNLVSGVPDRFSGSGSGTAFTLRISRVEAEDVGVYYCLQHLEYPFTFGPGTKLELK
modifications: DM4 maytansinoid payload

Columns and labels:
[1] = system: MOLP-8 human multiple myeloma xenografts; assay: Xenograft mouse experiments A Part I, MOLP-8, single iv bolus; assay type: in vivo, CB.17 SCID mice; conditions: for tumor growth compared with PBS-treated animals: single iv bolus 250 μg/kg (nBT062 antibody […])
Protocol: In these mice, subcutaneous tumors were established (female CB.17 SCID mice) by inoculation with MOLP-8 cell suspensions. Treatment with a single bolus intravenous injection was conducted when tumor volumes reached an average 113 mm^3. Changes in tumor volume and body weight were monitored twice per week.
Each mouse was inoculated with 1×10^7 MOLP-8 cells subcutaneously into the area under the right shoulder. The total volume was 0.2 ml per mouse, in which the ratio of serum-free medium to matrigel (BD Bioscience, Bedford, Mass.) was 1/1 (v/v). Prior to treatment, the xenograft tumors were monitored daily and were allowed to become established.
Eleven days after tumor cell inoculation, 42 mice were selected based on tumor volumes and body weights. […] The forty-two mice were randomly divided into seven groups (A-G) of six animals each based on tumor volume.
Each of six mice in Group A received 200 μl of PBS as vehicle control.
All agents were intravenously administered as a single bolus injection through a lateral tail vein with a 1 ml syringe fitted with a 27 gauge, ½ inch needle.

[2] = system: MOLP-8 tumor xenografts; assay: Bulky MOLP-8 tumor model (Part II / Xenograft mouse experiments B); assay type: in vivo, SCID mice; conditions: 450 μg/kg dose; mean time to reach 160 mm^3 minus control
Protocol: In a second set of experiments, MOLP-8 cells (1.5×10^7 cells per mouse), suspended in a 50:50 mixture of serum free media and matrigel were injected subcutaneously in the area under the right shoulder in 100 μl. Tumor volumes reached about 80 mm^3 at day 11 and the mean of the controls was about 750 mm^3 at day 25, post cell inoculation. […] Each mouse in the control group (n=6) received 0.2 ml of sterile PBS administered into the lateral tail vein (i.v.) in a bolus injection. All treatment doses were based on conjugated maytansinoid. […] Mice were randomized into eleven groups (n=6) by tumor volume using the LabCat Program. The tumor volumes ranged from 40.0 to 152.5 mm^3. The mice were dosed based on the individual body weight.
Tumor size was measured twice per week in three dimensions using the LabCat System (Tumor Measurement and Tracking, Innovative Programming Associated, Inc., Princeton, N.J.).
In this set of experiments, eighty-five mice were inoculated with MOLP-8 cells (1.5×10^7 cells/mouse) subcutaneously in the right shoulder. […] Sixty-six SCID mice bearing bulky MOLP-8 tumors with a mean tumor volume of about 80 mm^3 were randomized into eleven treatment groups (n=6).

Molecule	tumor growth compared with PBS-treated animals [1]	homogeneity of anti-tumor activity in individual mice ([1]; single iv 250 μg/kg, FIG. 9)	TGD* [2]
COc1cc2cc(c1Cl)N(C)C(=O)C[C@H](OC(=O)[C@H](C)N(C)C(=O)CCC(C)(C)S)[C@]1(C)O[C@H]1[C@H](C)[C@@H]1C[C@@](O)(NC(=O)O1)[C@H](OC)/C=C/C=C(\C)C2 [DM4, N^2′-deacetyl-N^2′-(4-methyl-4-mercapto-1-oxopentyl)-maytansine]	did not cause any significant inhibition of tumor growth	–	–
B-B4-SPP-DM1	marked delay in tumor growth	more heterogeneously and therefore less predicable	–
nBT062-DM1	–	–	18 days
B1	did not cause any significant inhibition of tumor growth	–	–
